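In this assay, cells in 96-well plates receive the compound at five concentrations for 48 hours. Endpoints are linearly interpolated between the surrounding concentrations. Here, GI50 denotes the concentration required for 50% inhibition of growth.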 Calls of active or inactive are those of the source. Cut-off read from the data, not from the text of the source: active = GI50 up to about 1.1 µM and inactive = higher.
Tests used:
Assay in all cases: NCI tumour cell line growth inhibition, 48 h
A498 = test system: A498
A549 = test system: A549
ACHN = test system: ACHN
CCRF-CEM = test system: CCRF-CEM
HL-60 = test system: HL-60
K562 = test system: K562
LOX IMVI = test system: LOX IMVI
MDA-MB-435 = test system: MDA-MB-435
MOLT-4 = test system: MOLT-4
Malme-3M = test system: Malme-3M
NCI-H226 = test system: NCI-H226
NCI-H23 = test system: NCI-H23
NCI-H460 = test system: NCI-H460
OVCAR-5 = test system: OVCAR-5
RPMI-8226 = test system: RPMI-8226
SF-539 = test system: SF-539
SNB-75 = test system: SNB-75
SW-620 = test system: SW-620
T47D = test system: T47D
UO-31 = test system: UO-31

Measured: GI50

CN1CCN(C2CC(=O)c3c(Cl)sc(Cl)c32)CC1 (stereo not given)
inactive: A498 43.2 µM | A549 21.3 µM | ACHN 18.5 µM | CCRF-CEM 3.45 µM | HL-60 19.9 µM | K562 4.06 µM | LOX IMVI 1.8 µM | MDA-MB-435 7.05 µM | MOLT-4 5.48 µM | Malme-3M 23.9 µM | NCI-H226 > 42.8 µM | NCI-H23 9.12 µM | NCI-H460 30.6 µM | OVCAR-5 27.7 µM | RPMI-8226 4.36 µM | SF-539 17.3 µM | SNB-75 14.7 µM | SW-620 7.94 µM | T47D 18.5 µM | UO-31 7.6 µM

Cc1ccc(Cc2n[nH]c(=O)n2Nc2ccccc2)cc1
inactive: A498 > 100 µM | A549 > 100 µM | ACHN > 100 µM | CCRF-CEM > 100 µM | HL-60 > 100 µM | K562 > 100 µM | LOX IMVI > 100 µM | MDA-MB-435 > 100 µM | MOLT-4 > 100 µM | Malme-3M > 100 µM | NCI-H226 > 100 µM | NCI-H23 > 100 µM | NCI-H460 > 100 µM | OVCAR-5 > 100 µM | RPMI-8226 > 100 µM | SF-539 > 100 µM | SW-620 > 100 µM | T47D 89.9 µM | UO-31 68.2 µM

NCCCc1ccc2oc3ccccc3c2c1
inactive: A498 16.1 µM | A549 17.1 µM | ACHN 17.5 µM | CCRF-CEM 11.6 µM | HL-60 11.4 µM | K562 24.2 µM | LOX IMVI 18.5 µM | MDA-MB-435 15.7 µM | MOLT-4 11.8 µM | Malme-3M 17.5 µM | NCI-H226 19.1 µM | NCI-H23 20.6 µM | NCI-H460 17 µM | OVCAR-5 12.7 µM | RPMI-8226 26.4 µM | SF-539 21.2 µM | SNB-75 16.8 µM | SW-620 18.9 µM | T47D 17.7 µM | UO-31 15.8 µM

CCOC(=O)C1C(c2ccccc2)C2(C#N)C(=N)OC1(C)C2(C#N)C#N (stereo not given)
inactive: A498 32.7 µM | A549 > 100 µM | ACHN 20.9 µM | CCRF-CEM 23.5 µM | HL-60 20.7 µM | K562 19.8 µM | LOX IMVI 16 µM | MDA-MB-435 22.4 µM | MOLT-4 21.1 µM | Malme-3M 20.5 µM | NCI-H226 24.3 µM | NCI-H23 17.5 µM | OVCAR-5 21.7 µM | RPMI-8226 20 µM | SF-539 18.1 µM | SNB-75 1.51 µM | SW-620 44.8 µM | T47D 32.1 µM | UO-31 16.2 µM

COc1c(-c2ccc(O)c(O)c2)oc2c(O)c(O)cc(O)c2c1=O
inactive: A498 > 100 µM | A549 69.2 µM | ACHN > 100 µM | CCRF-CEM 29.2 µM | HL-60 > 10 µM | K562 20.8 µM | LOX IMVI 15.2 µM | MDA-MB-435 31 µM | MOLT-4 28.6 µM | Malme-3M > 100 µM | NCI-H226 > 100 µM | NCI-H23 60.3 µM | NCI-H460 55.6 µM | OVCAR-5 > 100 µM | RPMI-8226 31.8 µM | SF-539 > 100 µM | SW-620 22.5 µM | T47D 67 µM | UO-31 > 100 µM

CC1OC(n2cc(F)c(=O)[nH]c2=O)C(O[Si](C)(C)C(C)(C)C)C1O[Si](C)(C)C(C)(C)C (stereo not given)
inactive: A498 14.2 µM | A549 15.8 µM | ACHN 14 µM | CCRF-CEM 16.6 µM | HL-60 5.93 µM | K562 15.4 µM | LOX IMVI 16.2 µM | MDA-MB-435 17.9 µM | MOLT-4 13.2 µM | Malme-3M 14.9 µM | NCI-H226 16.2 µM | NCI-H23 10.6 µM | OVCAR-5 15.2 µM | RPMI-8226 11.6 µM | SF-539 12.6 µM | SNB-75 15.5 µM | SW-620 15 µM | T47D 10.2 µM | UO-31 12.8 µM

CCOC(=O)NC(Nc1ccc(S(=O)(=O)Nc2nc(C)cc(C)n2)cc1)(C(=O)OCC)C(F)(F)F (stereo not given)
inactive: A498 > 100 µM | A549 > 100 µM | ACHN > 100 µM | CCRF-CEM > 100 µM | HL-60 > 100 µM | K562 > 100 µM | LOX IMVI > 100 µM | MDA-MB-435 > 100 µM | MOLT-4 > 100 µM | Malme-3M > 100 µM | NCI-H226 > 100 µM | NCI-H23 > 100 µM | NCI-H460 > 100 µM | OVCAR-5 > 100 µM | RPMI-8226 > 100 µM | SF-539 > 100 µM | SNB-75 > 100 µM | SW-620 > 100 µM | T47D > 100 µM | UO-31 > 100 µM

N=C(N)SCCON1C(=O)c2ccccc2C1=O
inactive: A498 > 100 µM | A549 > 100 µM | ACHN > 100 µM | CCRF-CEM > 100 µM | HL-60 > 100 µM | K562 > 100 µM | LOX IMVI > 100 µM | MDA-MB-435 > 100 µM | MOLT-4 > 100 µM | Malme-3M > 100 µM | NCI-H226 > 100 µM | NCI-H23 > 100 µM | NCI-H460 > 100 µM | OVCAR-5 > 100 µM | RPMI-8226 > 100 µM | SF-539 > 100 µM | SNB-75 > 100 µM | SW-620 > 100 µM | T47D > 100 µM | UO-31 > 100 µM

Cc1ccc2nc(Cl)c(/C=N/N3C(=O)/C(=C/Cc4ccco4)N=C3c3ccccc3)cc2c1
inactive: A498 5.06 µM | A549 36.4 µM | ACHN 72.3 µM | CCRF-CEM > 100 µM | HL-60 34.1 µM | K562 38.1 µM | LOX IMVI 27.4 µM | MDA-MB-435 2.1 µM | MOLT-4 58.6 µM | Malme-3M 63.5 µM | NCI-H226 > 54.6 µM | NCI-H23 > 49.2 µM | NCI-H460 26.4 µM | OVCAR-5 > 74.6 µM | RPMI-8226 27 µM | SF-539 43.6 µM | SNB-75 > 47.4 µM | SW-620 58.1 µM | T47D > 50 µM | UO-31 23.7 µM

Cc1ccc(NC(Nc2ccc(C)cc2C)=C(C(Cl)=C(Cl)Cl)[N+](=O)[O-])c(C)c1
inactive: A498 21.3 µM | A549 12.6 µM | ACHN 15.2 µM | CCRF-CEM 3.35 µM | HL-60 4.12 µM | K562 9.53 µM | LOX IMVI 5.83 µM | MDA-MB-435 4.89 µM | MOLT-4 10.7 µM | Malme-3M 16.9 µM | NCI-H226 14.6 µM | NCI-H23 6.22 µM | NCI-H460 13.9 µM | RPMI-8226 19.2 µM | SF-539 21.3 µM | SNB-75 9.35 µM | SW-620 16.8 µM | T47D 10.5 µM | UO-31 13.7 µM

Source: ChEMBL document CHEMBL1201862, “PubChem BioAssay data set” (2004)
